Key:
[1] = system: L. lactis IL1403 Nis^R; assay: MIC determination (nisin sensitivity assay); assay type: cell-based, Lactococcus lactis
Protocol: Generation of nisin-resistant variants of L. lactis IL1403― A nisin stock solution was derived from nisaplin, (2.5% nisin, Aplin and Barrett, Danisco, Denmark) as described earlier (44). Nisin-resistant isogenic variants of L. lactis IL1403 were obtained by growing the strain in broth, while stepwise increasing the nisin concentration, as described before (29).
Nisin sensitivity assays― Sensitivity to nisin was determined essentially as described before (32) for the strains L. lactis NZ9000, L. lactis NZ9000 ΔgalAMK, L. lactis MG1363 and L. lactis MG1363 ΔdltD (16). For the strains of L. lactis NZ9000 (pNZ8048) and L. lactis NZ9000 (pJK1), the cells were diluted 50-fold in fresh medium. At an OD600 of 0.2 the cells of both cultures were induced with 4 µg/L nisin for 2 h. Nisin induction of PnisA in the pNZ8048 derivatives was performed as described by de Ruyter et al. (12). Outgrowth in all wells was determined at the moment when wells containing cells without nisin had reached an OD595 of 0.8, measured in an ELISA micro titer plate reader (Spectramax plus 384, Molecular Devices, Wageningen, the Netherlands). MIC values were calculated from the lowest concentration of nisin at which growth of the test strain was inhibited.

[2] = system: M. flavus Nis^R; assay: Determination of the Minimal Inhibitory Concentration (Example 2); assay type: cell-based, Micrococcus flavus; settings: cross-resistance of the Nis^R strains
Protocol: M. flavus and L. lactis were grown overnight at their optimum growth conditions. The Nis^R variants were grown in the presence of nisin (3 mg/L). The MIC values were estimated essentially as described before (23).

With `C=C1NC(=O)[C@@H]2NC(=O)[C@H](CC(C)C)NC(=O)[C@H](NC(=O)[C@@H]3CS[C@@H](C)[C@@H](NC(=O)[C@H](Cc4ccccc4)NC(=O)[C@@H]4NC(=O)[C@@H](N)CS[C@H]4C)C(=O)N[C@@H](CC(C)C)C(=O)N4CCC[C@H]4C(=O)NCC(=O)NCC(=O)NCC(=O)NCC(=O)N[C@@H](C(C)C)C(=O)N3)[C@H](C)SC[C@H](NC(=O)[C@H](CCC(=O)O)NC1=O)C(=O)N[C@@H]([C@@H](C)CC)C(=O)N/C=C\S[C@H]2C` [Mersacidin, mersacidin] the cross-resistance [1] was “no cross-resistance” and the “change in MIC in the nisin resistant strain” value [2] was “No change”.

From patent EP1609872A1, “A method for selecting a gene involved in nisin resistance in bacteria” (Stichting voor de Technische Wetenschappen, priority 2004, dated 2005)
